In US20240424036A1, “COMPOSITIONS AND METHODS FOR PREVENTING OR TREATING INCONTINENCE, OVERACTIVE BLADDER, OR MENSTRUAL CRAMPING” (priority 2018, published 2024):
“Also recorded” adds a separate entry of the source.

What was measured:
[1] = test system: primary myofibroblast cells; assay: Myofibroblast populated collagen gel contraction assay; type: cell-based
Description: Bacterial supernatants from E. coli, L. crispatus, and L. gasseri strain KE-1 (ATCC Designation No. PTA-125162) were added to a myofibroblast populated collagen matrix, both from pure culture and mixtures with DMEM with 2% FBS. In addition, GABA, ATP and LPS were included as controls. The collagen contraction assay using primary myofibroblast cells seeded on top of a collagen matrix was tested against the bacterial products. […] As depicted in FIG. 12C, pure ATP caused contraction of myofibroblasts in the first hour (30.37%) and continued for 24 hours (68.56%). […] Based on previous literature, it is believed that the contraction maybe caused by E. coli was due to LPS.
Bladder epithelial cells (5637-ATCC HTB-9) were maintained in RPMI 1640 (Roswell-Park Memorial Institute media—Thermo Fisher Scientific, MA) supplemented with 10% fetal bovine serum (FBS) (Thermo Fisher Scientific, Ma.) and 2 mM L-glutamine (Thermo Fisher Scientific, MA.) at 37° C. and 5% CO2. The media was changed every 48 hours or more regularly if the cells were confluent (90%-100%), after washing by 1×PBS and trypsinization by 0.25% Trypsin-EDTA (1×) (Gibco), with the ratio of 1 to 10. Primary myofibroblast cells were extracted from the palmar fascia during surgery from normal tissue. Primary cultures were maintained in DMEM with 10% fetal bovine serum (FBS; Life Technologies, Carlsbad, CA, USA), 1% L-glutamine (Life Technologies) and 1% antibiotic-antimycotic solution (Life Technologies) at 37° C. in 5% CO2. All primary cell lines were used up to a maximum of four passages, after which they were discarded.

5637 cells = assay: Fluorescent microscopy of calcium influx of 5637 cells (FLUO-4); type: cell-based, human
Description: Supernatants were collected from cultures grown overnight (24 hours) at 37° C. after reaching stationary phase. Cultures were pelleted by centrifugation at 5000 rpm (Eppendorf Centrifuge 5804 R) for 15 minutes. The supernatant was pH adjusted to 7.0 with 0.1 Molar HCL or NaOH, filter sterilized with 0.22 um sterile syringe filter, and aliquoted and stored at −20 C° until use. In the case of E. coli and E. faecalis, overnight cultures were diluted 1:100 with fresh artificial urine, returned to incubation at 37° C. and sampled at T=1, 2, 3, 4, 5 and 24 hours for testing. […]
The influx of calcium was measured using the FLUO-4 DIRECT™ Calcium Assay kit (Invitrogen™, CA). […] Cells were counted by using the INVITROGEN COUNTESS AUTOMATED CELL COUNTER (Thermo Fisher Scientific, MA.) per the manufacturers' instructions. […] The effect of treatments was assessed using a NIKON EPIFLUORESCENCE TS2R scope at 10× magnification at 494 nm for excitation and 516 nm for emission for 60 seconds. The image intensity was calculated using ImageJ and is indicative of Ca^2+ influx into the urothelial cell's cytoplasmic space from either the extracellular environment or intracellular Ca^2+ stores (referred to as Ca^2+ influx).

E. coli [2] = assay: ATP release by E. coli at subtherapeutic ciprofloxacin concentrations; type: cell-based, Escherichia coli; conditions: concentrations below the MIC of 0.25, 0.125, 0.0625 ug/mL, FIG. 9B
Description: Further testing was completed on E. coli and its release of ATP. Testing was conducted to determine the minimum inhibitory concentration (MIC) and subtherapeutic concentrations of exposure to the antibiotic ciprofloxacin (Cip).
The release of ATP from bacterial supernatants was measured using an ATP colorimetric/fluorometric assay kit (Biovision Inc, CA). Samples and reagents were prepared according to the protocol provided. The OD numbers were taken by the BIOTEK EON microplate reader. A luminescent assay kit BACTITER-GLO™ Microbial Cell Viability Assay, G8230) was used to quantify the amount of extracellular ATP released by the bacteria into the supernatant and released by the cells into the cell media. The SYNERGY™ H4 Hybrid Multi-Mode Microplate Reader was used to quantify the amount of extracellular ATP.

E. coli [3] = assay: Growth of E. coli supplemented with ATP; type: cell-based, Escherichia coli; conditions: FIG. 8F
L. crispatus = assay: Growth of L. crispatus in AU supplemented with ATP; type: cell-based, Lactobacillus crispatus; conditions: AU supplemented with different concentrations of ATP, FIG. 8E
Description: As depicted in FIG. 8D, the amount of ATP remaining when L. crispatus was grown in AU supplemented with 0.1 mM ATP for 24 hours was 22.89±0.98 uM, which was less than half the control (49.2±6.3 uM) (P≤0.0005). To further investigate ATP reduction, L. crispatus was cultured in AU supplemented with different concentrations of ATP (FIG. 8E), as well as in AU supplemented with 50% E. coli supernatant (FIG. 8G), and 25% G. vaginalis supernatant (FIGS. 8H and 8J), as potential natural sources of ATP. The growth of L. crispatus was increased by increasing ATP concentration (FIG. 8E), including that emanating from the E. coli and G. vaginalis supernatants (FIGS. 8H and 8J). […] In FIGS. 8A-8L, statistical significance was determined using Tukey's test, p≤0.05, and is designated with three asterisks (p less than 0.05*, 0.01**, 0.001***).
For investigation the subtherapeutic concentration of ciprofloxacin, the L. crispatus was grown in deMan, Rogosa, Sharpe media (MRS, Difco, MD). Growth curves for these bacteria were generated using a plate reader (Eon Biotek, VT) at OD600 and 37° C. to determine exponential phase.

Structure (SMILES): NCCCC(=O)O [GABA, γ-aminobutyric acid]
- contraction of myofibroblasts ([1]; GABA alone, FIG. 12C): did not cause contraction
- effect on contraction caused by E. coli ([1]; GABA with E. coli, FIG. 12D): inhibited contraction; also recorded: could inhibit contraction
- effect on stimulation of calcium influx caused by ATP (5637 cells; AU containing 1 uM GABA mixed with ATP in AU, FIG. 10A): reduce the stimulation of calcium influx
- effect on stimulation of calcium influx caused by E. coli supernatant (5637 cells; GABA mixed with E. coli supernatant, FIG. 10B): inhibit the stimulation of calcium influx

Structure (SMILES): O=C(O)c1cn(C2CC2)c2cc(N3CCNCC3)c(F)cc2c1=O [ciprofloxacin]
- ATP released by E. coli (E. coli [2]): up to 0.0261±0.003 uM

Structure (SMILES): Nc1ncnc2c1ncn2[C@@H]1O[C@H](COP(=O)(O)OP(=O)(O)OP(=O)(O)O)[C@@H](O)[C@H]1O [ATP, adenosine triphosphate]
- contraction of myofibroblasts ([1]; after 24 hours, sample alone, FIGS. 12A-12C): 68.56%
- contraction of myofibroblasts ([1]; after five hours of exposure, FIG. 12E): 57.5%
- contraction of myofibroblasts ([1]; in the first hour, FIG. 12C): 30.37%
- growth of E. coli (E. coli [3]): somewhat inhibitory effect
- growth of L. crispatus (L. crispatus): increased
